Measurements: patent US12263248B2, “Compounds and compositions for intracellular delivery of therapeutic agents” (ModernaTX, Inc., priority 2018, dated 2025)

Legend:
luciferase (Luc) mRNA [1] = assay: Luc expression, whole body bioluminescence after intravenous administration to mice; format: in vivo; conditions: for 6 h BLI Lipid/MC3: Table 3E, intravenous; for Total Flux 3 hours / Total Flux 6 hours / Total Flux 24 hours: mice, i.v., 0.5 mg/kg, Luc mRNA
Procedure, shortened: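 Bioluminescence, read as region-of-interest total flux at 3, 6 and 24 h, followed a single 0.5 mg/kg intravenous dose of Luc mRNA-loaded nanoparticles in mice (n=6). Luciferin substrate (200 μL, 15 mg/mL in PBS) was injected intraperitoneally into CD-1 mice 15 minutes ahead of each imaging point.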

[2] = Lipid clearance: lipid level in mouse liver tissue (LC-MS/MS); format: in vivo; conditions: Table 3E, mouse liver
[3] = Particle size and polydispersity index of nanoparticle compositions (Zetasizer Nano ZS); format: physicochemical
Procedure, shortened: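 Values are size and PDI readings from a Zetasizer Nano ZS. Measurements are taken in 1×PBS; zeta potential, by contrast, uses 15 mM PBS.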

[4] = Encapsulation efficiency of RNA (QUANT-IT RIBOGREEN RNA assay); format: physicochemical; conditions: for EE (%): Table 1A
Procedure, shortened: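 RiboGreen fluorescence (ex ~480, em ~520 nm) compared between intact samples and Triton X-100-lysed samples after 15 min at 37 °C in TE buffer, pH 7.5. Percent free RNA is the blank-corrected intact/disrupted ratio.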

[5] = Apparent (surface) pKa of the LNP formulation (TNS assay); format: physicochemical; conditions: for pKa: Table 1A
Procedure, shortened: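 Fluorescence of TNS probe added to LNP samples (mRNA 0.04 mg/mL) was read across 21 buffers of pH about 3-12, triplicate per pH. The inflection point of the sigmoidal fluorescence-vs-pH curve, […], gives apparent pKa; method validated in 1× PBS and Tris/sucrose buffer.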

luciferase (Luc) mRNA [6] = assay: Luc expression in liver, lung, spleen and femur 6 hours after intravenous administration; format: in vivo; conditions: mice, intravenous, 0.5 mpk
Procedure, shortened: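 LNP-formulated mRNA given IV to mice (n=3) at 0.5 mpk; at 6 h, bioluminescence imaged ex vivo 15 min after IP D-luciferin (15 mg/mL, 200 μL), organs imaged within 25 min. Values are total flux by region of interest.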

luciferase (Luc) mRNA [7] = assay: Luc expression (total flux) after intramuscular administration; format: in vivo, mice; conditions: 6 hours after intramuscular administration
Procedure: In order to monitor how effectively various nanoparticle compositions deliver therapeutic and/or prophylactics to targeted cells, different nanoparticle compositions including a particular therapeutic and/or prophylactic (for example, a modified or naturally occurring RNA such as an mRNA) are prepared and administered to rodent populations. Mice are intravenously, intramuscularly, intraarterially, or intratumorally administered a single dose including a nanoparticle composition with a formulation such as those provided in Example 3. In some instances, mice may be made to inhale doses. Dose sizes may range from 0.001 mg/kg to 10 mg/kg, where 10 mg/kg describes a dose including 10 mg of a therapeutic and/or prophylactic in a nanoparticle composition for each 1 kg of body mass of the mouse. A control composition including PBS may also be employed.
Sample formulations including both modified luciferase (Luc) mRNA and H10 mRNA were prepared and administered intramuscularly and the resulting expression and immunogenicity were evaluated simultaneously. Formulations including compounds according to Formula (I), (IA), (IB), (II), (IIa), (IIb), (IIc), (IId), (IIe), (IIf), (IIg), (III), (VI), (VI-a), (VII), (VIII), (VIIa), (VIIIa), (VIIIb), (VIIb-1), (VIIb-2), (VIIb-3), (VIIc), (VIId), (VIIIc), or (VIIId) were prepared and administered at doses of 0.001 and 0.01 mpk (e.g., doses of 0.0005 mpk of a formulation including Luc mRNA and a formulation including H10 mRNA or doses of 0.005 mpk of a formulation including Luc mRNA and a formulation including H10 mRNA).
Sample formulations including modified luciferase (Luc) mRNA prepared and administered intramuscularly and the resulting expression and immunogenicity were evaluated simultaneously. Formulations including compounds according to Formula (I), (IA), (IB), (II), (IIa), (IIb), (IIc), (IId), (IIe), (IIf), (IIg), (III), (VI), (VI-a), (VII), (VIII), (VIIa), (VIIIa), (VIIIb), (VIIb-1), (VIIb-2), (VIIb-3), (VIIc), (VIId), (VIIIc), or (VIIId) were prepared and administered at dose of and 0.01 mpk.

luciferase mRNA = assay: Luciferase expression after subcutaneous administration to mice; format: in vivo, female CD-1 mice; conditions: 0.5 mpk, relative to MC3
Procedure: The effect of the lipids of the disclosure on protein expression upon subcutaneous administration was studied. Formulations containing lipids of the disclosure and an mRNA expressing luciferase or hEPO were administered subcutaneously to female CD-1 mice at 0.5 mpk. Expression levels were obtained via whole body luminescent imaging (BLI) at 3, 6 and 24 hours after injection and expression levels in liver, spleen and at the injection site were evaluated ex vivo after 24 hours. […] See also Tables 35 and 36, and FIGS. 19 and 27.
Table 35 summarizes the luciferase expression levels using various nanoparticle compositions of the disclosure, and the luciferase expression levels using various nanoparticle compositions of the disclosure as compared to the luciferase expression level using an MC3 formulation after subcutaneous administration, as described above.

IL-6, IP-10 = assay: Cytokine induction in mice upon intravenous administration; format: in vivo; parameters: Cytokine induction IL-6 / Cytokine induction IP-10: unit not given here; conditions: intravenous, 0.5 mpk, 6 hours
Source text: The introduction of foreign material into a mammalian body induces an innate immune response that promotes cytokine production. Such immune responses to, for example, nanoparticle compositions including therapeutic and/or prophylactics, are undesirable. The induction of certain cytokines is thus measured to evaluate the […] of nanoparticle compositions. The concentrations of various cytokines in mice upon intravenous administration of nanoparticle compositions presented in Table 1A at a dosage of 0.5 mpk was measured at 6 hours. The standard MC3 formulation and a PBS control were also tested. As is evident in Table 7, IL-6 induction was highest for compositions including Compounds 1, 3, 9, 19, and 26, while IP-10 induction was highest for compositions including Compounds 3, 4, 7, 20, and 26. IL-6 induction was lowest for compositions including Compounds 4, 11, 12, and 28. IP-10 induction was lowest for compositions including Compounds 10, 11, 12, 13, 15, 17, and 18.

[8] = Table 1A, lipid:DSPC:cholesterol:PEG-DMG 50:10:38.5:1.5 mol %
[9] = Table 1E, compositions for subcutaneous administration

Structure (SMILES)	% Remaining dose at 6 h [2] [%]	% Remaining dose at 24 h [2] [%]	PDI ([3]; Table 1A)	Size (nm) [3, 8] [nm]	EE (%) [4] [%]	pKa [5]	6 h BLI Lipid/MC3 (luciferase (Luc) mRNA [1])	other results
CCCCCCCCCC(C)(O)CCCCCCCCN(CCO)CCCCCCCC(=O)OC(CCCCCCCC)CCCCCCCC (stereo not drawn) [Compound 171, Heptadecan-9-yl 8-((9-hydroxy-9-methyloctadecyl)(2-hydroxyethyl)amino)octanoate]	51.0	35.5	0.14	100.5	85.0	6.48	2.26	–
CCCCCCCCCOC(=O)CCCCCCCN(CCO)CCCCCCCC(=O)OC(CCC1CC1CCCC)CCC1CC1CCCC (stereo not drawn) [Compound 160, 1,5-Bis(2-butylcyclopropyl)pentan-3-yl 8-((2-hydroxyethyl)(8-(nonyloxy)-8-oxooctyl)amino)octanoate]	0.056	0	0.15	89.0	94.0	6.54	0.29	–
CCCCCCCCCCCCN(CCO)CCCCCCCCCCCC(=O)OC [Compound 137, Methyl 12-(dodecyl(2-hydroxyethyl)amino)dodecanoate]	–	–	–	–	–	7.06	–	Total Flux Femur (luciferase (Luc) mRNA [6]; femur): 2.02E+04; Total Flux Liver (luciferase (Luc) mRNA [6]): 6.48E+04; Total Flux Lung (luciferase (Luc) mRNA [6]): 1.66E+04; Total Flux Spleen (luciferase (Luc) mRNA [6]): 1.32E+05; Total Flux 3 hours (luciferase (Luc) mRNA [1]): 3.77E+05; Total Flux 6 hours (luciferase (Luc) mRNA [1]): 5.02E+05; Total Flux 24 hours (luciferase (Luc) mRNA [1]): 4.49E+05; Total flux, 0.001 mpk Dose (luciferase (Luc) mRNA [7]; 0.001 mpk, Luc mRNA and H10 mRNA): 7.57E+04 p/s; Total flux, 0.01 mpk Dose (luciferase (Luc) mRNA [7]; 0.01 mpk, Luc mRNA and H10 mRNA): 8.09E+04 p/s; Cytokine induction IL-6 (IL-6, IP-10): 130.82; Cytokine induction IP-10 (IL-6, IP-10): 234.35
CCCCCCCCC(CCCCCCCC)OC(=O)CCCCCCCN(CCO)CCCCCCCC(=O)O[C@H](C)CCCCCCCC [Compound 172, (R)-Decan-2-yl 8-((8-(heptadecan-9-yloxy)-8-oxooctyl)(2-hydroxyethyl)amino)octanoate]	17.4	3.24	0.13	77.3	95.4	6.40	1.72	–
CCCCCCCCCOC(=O)CCCCCCCN(CCO)CCCCCCCC(=O)OC(COCCCCCC)COCCCCCC [Compound 183, 1,3-Bis(hexyloxy)propan-2-yl 8-((2-hydroxyethyl)(8-(nonyloxy)-8-oxooctyl)amino)octanoate]	0.076	0	0.24	245.3	32.3	6.54	0.031	–
CCCCCCCCC(CCCCCCCC)C(=O)OCCCCCCCN(CCO)C(C)CCCCCCCCOC(=O)CCCCCCC (stereo not drawn) [Compound 162, 7-((2-Hydroxyethyl)(10-(octanoyloxy)decan-2-yl)amino)heptyl 2-octyldecanoate]	0.283	0	0.14	72.7	94.1	6.08	0.28	–
CCCCCCCCC(CCCCCCCC)OC(=O)CCCCCCCN(CCO)C(C)CCCCCCCCOC(=O)CCCCCCC (stereo not drawn) [Compound 161, Heptadecan-9-yl 8-((2-hydroxyethyl)(10-(octanoyloxy)decan-2-yl)amino)octanoate]	0.203	0	0.09	67.6	94.3	6.08	0.12	–

Now from value to compound, other results behind:

% Remaining dose at 6 h [2] [%]	% Remaining dose at 24 h [2] [%]	PDI ([3]; Table 1A)	Size (nm) [3, 8] [nm]	EE (%) [4] [%]	pKa [5]	Structure (SMILES)	6 h BLI Lipid/MC3 (luciferase (Luc) mRNA [1])	other results
–	–	0.13	77.2	98.4	6.92	CCCCCCCCCOC(=O)CCCCCCCN(CCCCCCCC(=O)OC(CCCCCCCC)CCCCCCCC)CC(O)CO (stereo not drawn) [Compound 69, Heptadecan-9-yl 8-((2,3-dihydroxypropyl)(8-(nonyloxy)-8-oxooctyl)amino)octanoate]	–	Total Flux Liver (luciferase (Luc) mRNA [6]): 2.24E+08; Total Flux Lung (luciferase (Luc) mRNA [6]): 7.34E+05; Total Flux Spleen (luciferase (Luc) mRNA [6]): 2.54E+06; Total Flux 3 hours (luciferase (Luc) mRNA [1]): 3.38E+09; Total Flux 6 hours (luciferase (Luc) mRNA [1]): 7.95E+09; Total Flux 24 hours (luciferase (Luc) mRNA [1]): 1.15E+08; Total flux (p/s) 0.01 mpk Dose (luciferase (Luc) mRNA [7]; Table 5B, 0.01 mpk): 8.83E+06 p/s; PDI [3, 9]: 0.09; Size (nm) [3, 9]: 71.8 nm; % EE [4, 9]: 99%; Novel lipid/MC3 expression ratio, 6 hr. time point, s.c. Luc 0.5 mpk (luciferase mRNA): 0.14; App. pKa ([5]; Table 3F): 6.95
33.8	29.3	0.14	69.6	98.3	6.77	CCCCCCCCCCCOC(=O)CCCCCN(CCO)CCCCCC(=O)OC(CCCCCCCCCC)CCCCCCCCCC [Compound 185, Henicosan-11-yl 6-((2-hydroxyethyl)(6-oxo-6-(undecyloxy)hexyl)amino)hexanoate]	0.87	–
0.051	0	0.17	92.2	87.2	6.33	CCCCCCCOC(=O)CCCCCCCCCN(CCO)CCCCCCCCCC(=O)OC(CCCCCC)CCCCCC [Compound 186, Heptyl 10-((2-hydroxyethyl)(10-oxo-10-(tridecan-7-yloxy)decyl)amino)decanoate]	1.13	–
